What was measured:
Assay type in all cases: cell-based
senescent cells = experiment: Cell viability, SSK1 combined with p38 inhibitors; conditions: SSK1 0.5 μM plus inhibitor
Method: To test the viability of senescent and non-senescent cells treated with SSK1, cells were stained with a mixture of Hoechst 33342 and propidium iodide (PI) (CA1120, Solarbio) to distinguish living and dead cells. After treatment with the small molecules, the cell culture medium was removed, and the cells were washed once with PBS. Then, the cells were stained according to the manufacturer's protocol, where the final concentrations of Hoechst 33342 and PI were 5 μg/ml and 2 μg/ml in PBS buffer. The plate was incubated at 4° C. for 30 min and observed on a fluorescence microscope or automatic cell imaging system. Viable cells were quantified using a MD Image Xpress Micro XL (Molecular Devices).

[1] = system: senescent human fibroblasts; experiment: Other reported senolytic compounds in cultured senescent human fibroblasts; conditions: hydroperoxide-, replication-, irradiation- and etoposide-induced senescent cells
Text: (§1) For replication-induced senescence, cells were passaged until they lost the ability to proliferate and became senescent. NBFs were used as senescent cells after approximately 8-9 passages or 12 population doublings. HEFs were used after approximately 35 passages or 50 population doublings. HUVECs were senescent after approximately 18 passages or 24 population doublings.
(§2) For ionizing radiation-induced senescence, MEFs and HEFs were exposed to 10 Gy of ionizing irradiation in an RS 2000 X-ray Biological Irradiator (Rad Source Technologies, Inc.) at a dose rate of 1.205 Gy/min. The day after irradiation, MEFs or HEFs were passaged at a 1:3 dilution and cultured for another three days. Then these cells were plated to carry out further experiments.
For etoposide-induced senescence, MEFs were treated with 2 μM etoposide for 20 hours, and HEFs were treated with 10 μM etoposide for 12-18 hours. […]
(§3) To test the viability of senescent and non-senescent cells treated with SSK1, cells were stained with a mixture of Hoechst 33342 and propidium iodide (PI) (CA1120, Solarbio) to distinguish living and dead cells. […] The plate was incubated at 4° C. for 30 min and observed on a fluorescence microscope or automatic cell imaging system. Viable cells were quantified using a MD Image Xpress Micro XL (Molecular Devices).

[2] = system: β-galactosidase positive senescent human embryonic fibroblasts (HEFs); experiment: CCK-8 cell viability, SSK2 in etoposide-induced senescent HEFs; conditions: increasing doses, 72 h
Method: (§4) For etoposide-induced senescence, MEFs were treated with 2 μM etoposide for 20 hours, and HEFs were treated with 10 μM etoposide for 12-18 hours. Three days after treatment, cells were sub-cultured at a 1:3 ratio for 72 hours in a fresh medium before further analysis.
Cultured cells were washed once with PBS and fixed in β-galactosidase staining fix solution for 15 min at room temperature. Cells were then washed three times with PBS and incubated with β-galactosidase staining solution (Beyotime Biotechnology) for 16-20 hours at 37° C. For 12-well plates, 1 ml of β-galactosidase staining solution was added to each well. The plate was sealed with Parafilm to prevent evaporation of the staining medium. After the overnight incubation, cells were washed with PBS and observed under a bright field microscope. For β-galactosidase staining of frozen sections, the frozen sections were dried at 37° C. for 20-30 min and then fixed in β-galactosidase staining fix solution for 15 min at room temperature. The frozen sections were washed three times with PBS and incubated with β-galactosidase staining solution overnight at 37° C. […]
Cell Counting Kit-8 (CCK-8) analysis was also used to assess cell viability. […] The absorbance was measured at 450 nm wavelength.

[3] = system: primary human chondrocytes isolated from Osteoarthritis patient; experiment: Viability / apoptosis of primary human OA chondrocytes (CCK-8, Annexin V flow cytometry)
Method: Fibroblasts were digested into single cell suspensions by incubation with 0.25% trypsin-EDTA (Invitrogen) at 37° C. for 3-5 min or with accutase at 37° C. for 10 min. Cells were then stained with FITC annexin V and propidium iodide (PI) according to the manufacturer's protocol (FITC Annexin V Apoptosis Detection Kit I, BD Pharmingen™). For chondrocytes Annexin V/7-AAD analysis, the trypsinized live chondrocytes and floating cells were collected, centrifuged and washed with PBS. Cells were stained with the Annexin V Apoptosis Detection Kit (Biolegend, 640934) according to the manufacturer's instruction. Before the flow cytometric analysis, the precision count beads (Biolegend, 424902) were added to count the absolute live cell numbers. Flow cytometry was performed within one hour on an Aria III (BD Biosciences) or FACSVerse (BD Biosciences). Data were analyzed using FlowJo software (FlowJo LLC).
Cell Counting Kit-8 (CCK-8) analysis was also used to assess cell viability. Senescent and non-senescent cells or chondrocytes were inoculated into 96-well plates and cultured overnight. Then cells were treated with vehicle (0.05% DMSO) or different concentrations of SSK2. After 48 h or 72 h, CCK-8 solution (C0041, Beyotime) was added to each well as 1:10 ratio and inoculated for another 2 h. The absorbance was measured at 450 nm wavelength.

[4] = system: primary mouse fibroblasts and their replication-induced senescent counterparts; experiment: Cell viability testing, senescent vs non-senescent primary mouse fibroblasts
Method: Mouse embryonic fibroblasts (MEFs) were isolated from E13.5 embryos as described previously (Zhao et al., Cell Stem Cell 23, 31-45 e37([…])). Newborn mouse skin fibroblasts (NBFs) were isolated from the skin of day 1-3 newborn mice. Adult mouse lung fibroblasts were isolated from 2-month-old and 23-month-old mice. Briefly, mouse embryonic tissues, skin and lung were obtained from described donor mice. Then, these tissues were minced with forceps and incubated in 2 mg/ml collagenase IV (Gibco) for 2-4 hours at 37° C. After enzyme treatment, cells were collected by centrifugation and resuspended in high-glucose DMEM (Gibco) supplemented with 10% fetal bovine serum (FBS) and 1% penicillin-streptomycin (Gibco). The three types of mouse primary cells were all cultured in a humidified incubator at 37° C. and 5% CO2.
To avoid replication-induced senescent cells, low-passage proliferative NBFs (<3 passages), MEFs (<3 passages), mouse lung fibroblasts (<3 passages), HEFs (<10 passages), and HUVECs (<6 passages) were used as normal controls. To induce cell quiescence, MEFs were cultured in DMEM without FBS for 2 days.
as §1
as §3, with “cells. After treatment with the small molecules, the cell culture medium was removed, and the cells were washed once with PBS.” for “cells.”

[5] = system: human senescent fibroblasts induced by different stimuli; experiment: Cell viability, senescent and non-senescent human embryonic fibroblasts (HEFs); conditions: human senescent cells; panel of FDA-approved drugs
Method: Human embryonic skin fibroblasts (HEFs) were obtained as previously described. Briefly, human embryonic skin tissues, obtained from aborted tissue with informed patient consent, were minced with forceps and incubated in 1 mg/ml collagenase IV for 1-2 hours at 37° C. After enzyme treatment, cells were collected by centrifugation and resuspended in HEF medium (Dulbecco's modified Eagle's medium (DMEM, Gibco) containing 10% fetal bovine serum (FBS, Ausbian), 1% GlutaMAX (Gibco), 1% Non-Essential Amino Acids (NEAA, Gibco) and 1% penicillin/streptomycin (Gibco). Cells were plated on 10 cm tissue culture dishes and grown in 10% FBS DMEM.
as §1, §2, §4, §3

Oc1ccc(-c2nc(-c3ccncc3)c(-c3ccc(F)cc3)[nH]2)cc1 [SB202190]
Viable cells, SSK1 combined with p38 MAPK inhibitor (senescent cells): impaired SSK1's ability to specifically kill senescent cells

CC1(C)CCC(c2ccc(Cl)cc2)=C(CN2CCN(c3ccc(C(=O)NS(=O)(=O)c4ccc(N[C@H](CCN5CCOCC5)CSc5ccccc5)c(S(=O)(=O)C(F)(F)F)c4)cc3)CC2)C1 [ABT263]
Selective killing of senescent human fibroblasts compared with proliferative cells [1]: selectively killed hydroperoxide-induced senescent human fibroblasts but not replication-induced cells

Cc1ccc(-n2nc(C(C)(C)C)cc2NC(=O)Nc2ccc(OCCN3CCOCC3)c3ccccc23)cc1 [Birb796]
Viable cells, SSK1 combined with p38 MAPK inhibitor (senescent cells): impaired SSK1's ability to specifically kill senescent cells

O=C(Nc1ccn([C@@H]2O[C@H](CO)C(O)C2(F)F)c(=O)n1)OCc1ccc(O[C@@H]2OC(CO)[C@H](O)C(O)C2O)c([N+](=O)[O-])c1 (stereo partly shown) [SSK2]
Selective killing of senescent HEFs (viable cells) [2]: efficiently and selectively kill β-galactosidase positive senescent human embryonic fibroblasts (HEFs) in a dose-dependent manner | Elimination of OA chondrocytes ([3]; FIG. 16: 10 μM, 72 h, FIG. 17: increasing concentrations): efficiently eliminate primary human chondrocytes isolated from Osteoarthritis patient | Viable human OA chondrocytes with increasing concentrations ([3]; SSK2 treatment for 48 h / 72 h as printed): Dose-dependent elimination of senescent cells

Nc1ccn([C@@H]2O[C@H](CO)[C@@H](O)C2(F)F)c(=O)n1 [gemcitabine]
Selective killing of senescent cells (viable cells) ([4]; increasing doses, senescent vs non-senescent cells): killed both cell types | Cytotoxicity for senescent cells ([4]; mouse senescent cells, panel of FDA-approved drugs): killed both mouse and human senescent cells effectively and potently | Cytotoxicity for senescent cells [5]: killed both mouse and human senescent cells effectively and potently

C[S+]([O-])c1ccc(-c2nc(-c3ccncc3)c(-c3ccc(F)cc3)[nH]2)cc1 (stereo not shown) [SB203580]
Viable cells, SSK1 combined with p38 MAPK inhibitor (senescent cells): impaired SSK1's ability to specifically kill senescent cells
